Marks after values point to notes of the source that are not given here.
How the values were obtained:
rat microglial cells = test: Metabolic profile of nonsensitized rat microglial cells in vitro; format: cell-based
Protocol: (§1) Materials and methods: Rat microglial cells were isolated by mechanical (cell sieves) disintegration of the brain tissue (FIG. 30A, FIG. 30B and FIG. 30C) followed by fractionation of the tissue homogenate in Percoll density gradient (Microglia: Methods and Protocols, Edited by Bertrand Josef and Jose Luis Venero, Springer protocol. Humana Press, 2013, 350 p.) (FIG. 31). Before the collection of the brain tissue, decapitation was performed to avoid hemorrhage to the brain during sampling (FIG. 32). Decapitation was performed immediately after anesthesia to minimize the death of brain tissue, including microglial cells. All manipulations for the isolation of microglial cells were carried out using coolants. Circulating neutrophils were isolated from venous blood taken into a tube containing EDTA in a two-step Percoll gradient (Alsharif K F et al. Vascul Pharmacol. 2015 August; 71:201-7. doi: 10.1016/j.vph.2015.02.006)(FIG. 33A and FIG. 33B). Circulating monocytes were isolated from venous blood collected into a tube containing heparin in a two-step Hypaque gradient (Macrophages and dendritic cells: Methods and Protocols, Edited by Neil E. Reiner, NY, Humana Press, 2009: 368 P). The metabolic profile of phagocytes was characterized based on the pathway of arginine metabolism (levels of arginase activity and NO synthesis measured using photocolorimetric methods), the level of formation of intracellular reactive oxygen species (ROS) by esterases and the indices of phagocytic activity determined by flow cytofluorimetry, as well as according to the activation levels of NADH and NADPH oxidases determined in NBT test. Duration of treatment of phagocytes of all the above mentioned populations varied depending on the methodological characteristics of metabolic response. A 90 minute exposure to the drugs according to Kim et al., 1977 (cited above) was used to analyze their effects on oxidative metabolism and phagocytic activity. An 18 hour exposure according to Lastra et al., 2001 (cited above) was used to analyze the drug effects on arginine metabolic pathway. To analyze the effects of the drugs under study on the induced (stimulated) metabolic activity of phagocytes, the cells were treated with lipopolysaccharide (LPS) from E. coli (Sigma, USA) according to Haddad et al., 2009 (cited above).

[1] = tested on: LPS rat models of Parkinson's disease; test: Open field test; format: in vivo
From the text: Method. The open field test is a technique commonly used to measure locomotor activity of rodents and their level of exploratory activity in an unfamiliar environment, as well as assess the levels of fear of novelty, anxiety or an increase in orientation response in rodents (Denenberg V H, et al., Physiology and Behavior, 1969; 4:403-406; Pellow S et al., J Neurosci Methods. 1985; 14(3):149-67). Behavioral patterns measured in the open field test include: distance travelled in the outer and inner perimeter, duration of time spent in the outer and inner perimeter, the total distance travelled and a percentage of the number of internal squares crossed compared to the total number of squares.
The open field was a square chamber 100×100 cm in size and with walls 60 cm high. The chamber was illuminated by two LED bulbs, 60 watts each, hanging at a height of 2 m. An IP camera was used to record the rodent movement. The MATLAB-based software was used to analyze the parameters. The statistical analysis was performed using GraphPad Prism. Significance was set at <0.005. The data collected from the open field were analyzed using One-way ANOVA (Tukey test or Dunnett test) and Unpaired t-test or Mann-Whitney.
Data analysis and interpretation. A novel environment in which an animal finds itself evokes conflict between fear and a desire to explore this environment. These two behavioral tendencies are characterized by different temporal variations and different spatial advantages. In the analysis, an arena is divided into two zones: inner and outer. The total locomotor activity and time spent in the inner and outer zones are the most significant parameters for assessing the levels of anxiety in rats. […] An increase in attendance of the inner zone is interpreted as a decreased anxiety in the animal. The emotional and exploratory behavior of an animal can be affected by various disorders in such brain regions as the hippocampus and the amygdala. In addition, various substances that have anxiolytic, stimulating and muscle relaxant effects can influence the results of the experiment. FIG. 50A and FIG. 50B show an example of analysis of a rat trajectory in the experimental arena.
(§2) On the 1st day of the experiment, rats were either operated to model hemi-parkinsonism or sham operated. From the 9th to the 18th day of the experiment, the animals were injected either deuterium-depleted water or the test substance, according to their allocation into groups, for 10 days. On the 8th day of the experiment (before initiation of treatment—apomorphine test I) and on the 21st day of the experiment (after the end of administering the test substance —apomorphine test II) the animals underwent an apomorphine test to analyze the development of hemi-parkinsonism which correlates with the number of destroyed dopaminergic neurons. In addition, a follow-up analysis of fecal water content was carried out, i.e., before the start of treatment on the 8th day after the operation, as well as on the 21st (after the end of treatment) and the 28th day (before autopsy). On the 24th day of the experiment, behavioral tests were carried out in all groups. All animals were weighed before autopsy. During autopsy, ⅔ of animals from each group were sacrificed by cervical dislocation and brain and blood samples were collected for further biochemical and immunological tests. ⅓ of the animals were used for further immunohistochemical studies of the brain; for this purpose, under anesthesia, a procedure of fast, controlled and uniform fixation of the whole body of the animal was performed using 4% paraformaldehyde perfused through the heart of the rat to obtain the best preservation of the brain architecture for immunohistochemistry. Gage G J, et al., J Vis Exp. 2012 Jul. 30; (65).

[2] = Body weight in LPS rat models of parkinsonism; format: in vivo; settings: for body weight: in g (unit assumed)
Protocol: as §2

[3] = tested on: rat peripheral blood neutrophils; test: Metabolic profile of nonsensitized rat peripheral blood neutrophils in vitro; format: cell-based
Protocol: as §1

[4] = regardless of the concentration, in vitro

Substance: ^64Zn-enriched zinc aspartate [^64Zne-asp]
- arginase activity of microglial cells on the background of LPS treatment (rat microglial cells; 2.5 μg/ml): moderately strengthened
- LPS-stimulated activity of NO synthase (synthesis of nitrites) in microglial cells (rat microglial cells; 10 μg/ml): decreased
- ROS production stimulated by LPS in microglial cells (rat microglial cells; 20 and 5 μg/ml): significantly inhibited
- spontaneous esterase-dependent oxidative metabolism (intracellular ROS) in microglial cells (rat microglial cells; 20 and 10 μg/ml): stimulated
- number of phagocytic cells in the microglial population (rat microglial cells; all concentrations studied): without affecting
- phagocytic activity of microglial cells (rat microglial cells; all concentrations studied): moderately increased
- spontaneous esterase-dependent oxidative metabolism (intracellular ROS) in microglial cells (rat microglial cells; concentrations ≤5 μg/ml): no statistically significant effect
- ROS production stimulated by LPS in microglial cells (rat microglial cells; other concentrations): did not have any effect
- spontaneous arginase activity of nonsensitized microglial cells (rat microglial cells; [4]): virtually no effect
- spontaneous nitric oxide production by nonsensitized microglial cells (rat microglial cells; [4]): reduced
- frequency of defecations (in words) ([1]; LPS + ^64Zn-asp versus LPS + deuterium-depleted water): increased
- Number of defecations ([1]; LPS + ^64Zn-asp, Gr. V): 7 ± 2.582
- Number of groomings ([1]; LPS + ^64Zn-asp, Gr. V): 3.5 ± 1.354
- Number of rearings ([1]; LPS + ^64Zn-asp, Gr. V): 14.4 ± 6.687
- Time spent in the inner perimeter ([1]; LPS + ^64Zn-asp, Gr. V): 9.235 ± 9.344 s
- Time spent in the outer perimeter ([1]; LPS + ^64Zn-asp, Gr. V): 290.8 ± 9.333 s
- Total distance travelled, cm ([1]; LPS + ^64Zn-asp, Gr. V): 1056 ± 423 cm
- levels of locomotor activity, anxiety or irritability (summary of behavioral tests) ([1]; findings of Example 7): no significant effects
- total distance travelled, time in outer and inner perimeter, number of rearings and groomings (in words) ([1]; group V (LPS+^64Zn-asp) versus group IV (LPS)): did not have any effect
- body weight ([2]; 1st day): 193.78 ± 22.21
- body weight ([2]; 28th day): 219.8 ± 18.31
- body weight changes, % ([2]; between 1st and 28th day): 13* %
- body weight of LPS rat models (in words) ([2]; day 28 versus day 1 and versus LPS + deuterium-depleted water, listed as 64Zn-asp): statistically significant increase
- arginase activity of resting and bacterial LPS-treated neutrophils [3]: remained practically unchanged
- esterase-dependent oxidative metabolism in neutrophils treated with bacterial LPS [3]: sharp decrease
- intracellular ROS production by nonsensitized neutrophils [3]: sharp decrease
- phagocytic activity of neutrophils [3]: No statistically significant effect
- synthesis of reactive nitrogen species by neutrophils after treatment with LPS [3]: moderately negative effect
- synthesis of reactive nitrogen species by resting neutrophils [3]: no significant effect
- ROS production dependent on NADH and NADPH oxidases (NBT test) in neutrophils ([3]; irrespective of treatment with bacterial LPS): strong negative effect
